Some results are limits rather than exact numbers.

A short description of series [1]: Plasma protein binding, equilibrium dialysis, mouse plasma. The class given is in vitro ADME. The note with it: pH 7.4, equilibrium dialysis (RED) 4 hours at 37° C., read-out: Plasma protein binding, fu, Mouse. The essentials: (§1)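 Compound at 10 μM in plasma dialysed against 67 mM phosphate buffer pH 7.4 for 4 h at 37° C. in RED device; unbound fraction from buffer and plasma levels by LC-MS/MS. Plasma stability checked in parallel over 4 h at 37° C. versus frozen control.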
A general note: In equilibrium dialysis only unbound substance equilibrates across the membrane.

The target in another series is VIM-2 (Escherichia coli, UniProt Q5U7L7). As to the kind of experiment: MBL inhibition, FC-5 fluorescence assay, VIM-2. The class given is biochemical. The settings on record: FC-5 cephalosporin substrate, ranges of obtained pIC50, read-out: pIC50 VIM-2 (converted). In outline: (§2)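 Inhibition of B1 metallo-β-lactamases measured by fluorophore release on hydrolysis of the cephalosporin FC-5, following initial rates by fluorescence (ex 380/em 460 nm). Dose-response data, normalized, were fitted to a variable-slope log(inhibitor) model; four intra-plate replicates per concentration.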

A short description of series [2]: Metabolic stability in mouse hepatocytes. The note with it: cryopreserved mouse hepatocytes, 1 μM compound, 37° C., up to 90 min, read-out: Metabolic stability in hepatocytes, in vitro t1/2, Mouse. It is filed as in vitro ADME. The essentials: (§3)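 Cryopreserved hepatocytes at 1.0×10^6 cells/ml in Williams medium E were incubated with 1 μM compound (final) at 37° C. Samples at 0, 5, 15, 30, 60 and 90 min were quenched with MeCN containing warfarin internal standard and analysed by LC-MS/MS.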

For another series, the system named is Escherichia coli NDM-7. In words: Antibiotic susceptibility testing (MIC), EC NDM-7. The class given is cell-based. The settings on record: agar or broth dilution (CLSI/EUCAST). The protocol:
(§4) Antibiotic susceptibility testing was performed using the agar or broth dilution method, in line with the Clinical and Laboratory Standards Institute (CLSI) and European Committee on Antimicrobial Susceptibility Testing (EUCAST) requirements.
In general terms: In broth dilution the organism is exposed to a series of concentrations in liquid medium.

A further series relates to Escherichia coli NDM-1. In words: Antibiotic susceptibility testing (MIC), EC NDM-1. The class given is cell-based. The settings on record: agar or broth dilution (CLSI/EUCAST). As to the method:
as §4

A further series concerns bacteria. As to the kind of experiment: Thigh and/or septicaemia mouse model of infection, with meropenem. The class given is in vivo. The note with it: NMRI mice; single dose with meropenem subcutaneous 1 h after inoculation; endpoint 3 h after treatment initiation. As to the method:
Female NMRI mice (5-6 weeks old, 26-30 gram, n=5) were rendered neutropenic via intraperitoneal injection of two doses of cyclophosphamide on day 4 and day 1 before infection. The animals were infected via intramuscular injection of an inoculum containing 10^6 CFU/mL of bacteria in the left thigh. The animals were treated with a single dose of meropenem subcutaneous +/− inhibitor 1 h after inoculation, and animals were either euthanised at the start of treatment or at the study endpoint at 3 h after treatment initiation. Clinical scores were monitored at 1 and 4 hours post inoculation and were in all cases mild or moderate. Thighs were aseptically removed from the animals, homogenised, diluted, and plated for incubation. Bacterial counting was performed after 18-22 h of incubation at 35° C. in ambient air.
Immunocompetent female NMRI mice mice (5-6 weeks old, 26-30 gram, n=5) were inoculated intraperitoneally with 0.5 ml inoculum containing 5×10^5 CFU suspended in 5% porcine mucin.
The animals were treated with a single dose of meropenem subcutaneous+/−metallo-b-lactamase inhibitor intravenous 1 h after inoculation. Animals were either euthanised at the start of treatment or at the study endpoint at 3 h after treatment initiation. Clinical scores were monitored at 1 and 4 hours post inoculation and were in all cases mild or moderate. Mice were anaesthetised anesthetized with a buprenorphine/tiletamine/zolazepam cocktail and bled, then euthanized and the peritoneum flushed with 2 ml sterile 0.9% NaCl and collected. The blood and/or peritoneal flush were serially diluted and plated for incubation. Bacterial counting was performed after 18-22 h of incubation at 35° C. in ambient air.

For a further series, the target named is VIM-1 (Pseudomonas aeruginosa, UniProt A0A0F7KYQ8). As to the kind of experiment: MBL inhibition, FC-5 fluorescence assay, VIM-1. It is filed as biochemical. The settings on record: FC-5 cephalosporin substrate, ranges of obtained pIC50, read-out: pIC50 VIM-1 (converted). In outline:
as §2

The target of another series is NDM-1 (Klebsiella pneumoniae, UniProt C7C422). As to the kind of experiment: MBL inhibition, FC-5 fluorescence assay, NDM-1. The class given is biochemical. The settings on record: FC-5 cephalosporin substrate, fluorescence; ranges of obtained pIC50; read-out: pIC50 NDM-1 (converted). The essentials: as §2
Another series has as its target IMP-1 (Serratia marcescens, UniProt P52699). In words: MBL inhibition, FC-5 fluorescence assay, IMP-1. The class given is biochemical. The note with it: FC-5 cephalosporin substrate, fluorescence; ranges of obtained pIC50; read-out: pIC50 IMP-1 (converted). In outline: as §2
Series [3] deals with Acinetobacter baumannii NDM-1. As to the kind of experiment: Antibiotic susceptibility testing (MIC), AB NDM-1. The class given is cell-based. The note with it: agar or broth dilution (CLSI/EUCAST). As to the method: as §4
A short description of series [4]: Plasma protein binding, equilibrium dialysis, human plasma. The class given is in vitro ADME. The settings on record: pH 7.4, equilibrium dialysis (RED) 4 hours at 37° C., read-out: Plasma protein binding, fu, Human. The essentials: as §1
Series [5] in a line: Metabolic stability in human hepatocytes. The class given is in vitro ADME. The settings on record: cryopreserved human hepatocytes, 1 μM compound, 37° C., up to 90 min, read-out: Metabolic stability in hepatocytes, in vitro t1/2, Human. The essentials:
as §3

Sequence of IMP-1 (P52699 19-246, looked up, species assumed): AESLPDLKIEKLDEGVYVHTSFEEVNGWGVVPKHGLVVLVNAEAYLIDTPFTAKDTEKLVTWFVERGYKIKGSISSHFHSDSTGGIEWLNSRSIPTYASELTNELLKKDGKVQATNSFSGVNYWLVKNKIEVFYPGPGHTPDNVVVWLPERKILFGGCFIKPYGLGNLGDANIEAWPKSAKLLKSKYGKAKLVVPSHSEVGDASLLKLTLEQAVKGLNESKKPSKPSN
Sequence of NDM-1 (C7C422 29-270, looked up, species assumed): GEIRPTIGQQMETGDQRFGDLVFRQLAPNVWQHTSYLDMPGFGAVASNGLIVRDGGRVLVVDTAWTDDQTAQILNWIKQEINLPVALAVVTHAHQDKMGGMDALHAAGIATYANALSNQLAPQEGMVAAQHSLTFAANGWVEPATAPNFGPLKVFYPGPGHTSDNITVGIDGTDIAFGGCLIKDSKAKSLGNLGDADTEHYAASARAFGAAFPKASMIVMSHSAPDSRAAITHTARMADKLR

Regarding `C[C@@H](c1cccc2c(-c3ccnc(O)c3)c(C(=O)O)[nH]c12)N1C[C@]2(C[C@@H](CN)C2)OC1=O` [IC-18, 7-((S)-1-((2S,4r)-2-(aminomethyl)-6-oxo-5-oxa-7-azaspiro[3.4]octan-7-yl)ethyl)-3-(2-hydroxypyridin-4-yl)-1H-indole-2-carboxylic acid], the fraction unbound at 4 h, 10 μM in series [1] was 0.005 to 0.05; in series [4], greater than 0.25. The IC50 at VIM-2 was 0.1 to 1 nM; on VIM-1 it was 1 to 10 nM; at NDM-1, 0.1 to 1 nM; at IMP-1, greater than 10 nM. The half-life at 1 μM in [2] was greater than 6.67 h; in [5] it was less than 2.5 h. In addition, the “MIC values EC NDM-7” value against Escherichia coli NDM-7 is recorded as “A (A = MIC values ≤ 1)”. Besides, the “MIC values EC NDM-1” value against Escherichia coli NDM-1 is given as “A (A = MIC values ≤ 1)”. Moreover, in the series on bacteria, the “Dose required to reduce minim 1 log fold CFU in a thigh and or a sepsis animal model” value is reported as “C (C = 5-10 mg/kg)”. The “MIC values AB NDM-1” value in [3] is listed as “B (B MIC values 2 ÷ 8)”.
Regarding `COc1cc(-c2c(C(=O)O)[nH]c3c([C@H](C)n4cc(CN5CC(N)C5)oc4=O)cccc23)ccn1` [IC-56, 7-[(1S)-1-{5-[(3-aminoazetidin-1-yl)methyl]-2-oxo-2,3-dihydro-1,3-oxazol-3-yl}ethyl]-3-(2-methoxypyridin-4-yl)-1H-indole-2-carboxylic acid], the fraction unbound at 4 h, 10 μM in [1] lay in the range of 0.005 to 0.05; in [4], 0.05 to 0.25. For the same molecule, the IC50 on VIM-2 was 0.1 to 1 nM; on VIM-1, greater than 10 nM; at NDM-1 it was less than 0.1 nM; on IMP-1, greater than 10 nM. Moreover, the values for the half-life at 1 μM in series [2] and in series [5] were less than 2.5 h and greater than 6.67 h, respectively. The “MIC values EC NDM-7” value in the series on Escherichia coli NDM-7 is recorded as “A (A = MIC values ≤ 1)”. Besides, the “MIC values EC NDM-1” value in the series on Escherichia coli NDM-1 is reported as “A (A = MIC values ≤ 1)”. Moreover, the “Dose required to reduce minim 1 log fold CFU in a thigh and or a sepsis animal model” value in the series on bacteria was “C (C = 5-10 mg/kg)”. Also, the “MIC values AB NDM-1” value in [3] is recorded as “B (B MIC values 2 ÷ 8)”.
For `C[C@@H](c1cccc2c(-c3ccc(NS(C)(=O)=O)c(F)c3)c(C(=O)O)[nH]c12)n1cc(CN2CC(N)C2)oc1=O` [IC-57, 7-[(1S)-1-{5-[(3-Aminoazetidin-1-yl)methyl]-2-oxo-2,3-dihydro-1,3-oxazol-3-yl}ethyl]-3-(3-fluoro-4-methanesulfonamidophenyl)-1H-indole-2-carboxylic acid], the fraction unbound at 4 h, 10 μM in [1] lay in the range of 0.005 to 0.05; in series [4], 0.05 to 0.25. In addition, the IC50 is 0.1 to 1 nM on VIM-2, 1 to 10 nM on VIM-1, less than 0.1 nM on NDM-1 and greater than 10 nM on IMP-1. Besides, the half-life at 1 μM was less than 2.5 h in series [2] and 2.5 to 6.67 h in [5]. Further, the “MIC values EC NDM-7” value in the series on Escherichia coli NDM-7 is listed as “A (A = MIC values ≤ 1)”. Moreover, the “MIC values EC NDM-1” value in the series on Escherichia coli NDM-1 is on record as “A (A = MIC values ≤ 1)”. Also, in the series with bacteria, the “Dose required to reduce minim 1 log fold CFU in a thigh and or a sepsis animal model” value is “B (B = 30-10 mg/kg)”. Further, in series [3], the “MIC values AB NDM-1” value is reported as “A (A = MIC values ≤ 1)”.
For the molecule `C[C@@H](c1cccc2c(-c3ccc(CS(C)(=O)=O)c(F)c3)c(C(=O)O)[nH]c12)N1C[C@]2(C[C@@H](CN)C2)OC1=O` [IC-60, 7-((1S)-1-(2S,4r)-(2-(aminomethyl)-6-oxo-5-oxa-7-azaspiro[3.4]oct-7-yl)ethyl)-3-(3-fluoro-4-((methylsulfonyl)methyl)phenyl)-1H-indole-2-carboxylic acid], the values for the fraction unbound at 4 h, 10 μM in [1] and in [4] were 0.05 to 0.25 and greater than 0.25, respectively. Besides, the IC50 was 0.1 to 1 nM on VIM-2, 0.1 to 1 nM at VIM-1, less than 0.1 nM on NDM-1 and greater than 10 nM on IMP-1. Besides, the half-life at 1 μM in series [2] and in series [5] was greater than 6.67 h in each case. Moreover, the “MIC values EC NDM-7” value with Escherichia coli NDM-7 is recorded as “A (A = MIC values ≤ 1)”. The “MIC values EC NDM-1” value against Escherichia coli NDM-1 is “A (A = MIC values ≤ 1)”. In addition, in the series on bacteria, the “Dose required to reduce minim 1 log fold CFU in a thigh and or a sepsis animal model” value is “C (C = 5-10 mg/kg)”. The “MIC values AB NDM-1” value in series [3] was “A (A = MIC values ≤ 1)”.
As to `C[C@@H](c1cccc2c(-c3ccc(CS(C)(=O)=O)c(F)c3)c(C(=O)O)[nH]c12)N1C[C@]2(C[C@H](CN)C2)OC1=O` [IC-61, 7-((1S)-1-(2R,4s)-(2-(aminomethyl)-6-oxo-5-oxa-7-azaspiro[3.4]oct-7-yl)ethyl)-3-(3-fluoro-4-((methylsulfonyl)methyl)phenyl)-1H-indole-2-carboxylic acid], the fraction unbound at 4 h, 10 μM in series [1] fell in the range of 0.005 to 0.05; in [4], 0.05 to 0.25. The IC50 is less than 0.1 nM at VIM-2, 0.1 to 1 nM on VIM-1, less than 0.1 nM at NDM-1 and 1 to 10 nM at IMP-1. Also, the half-life at 1 μM in series [2] and in series [5] was greater than 6.67 h each time. Also, the “MIC values EC NDM-7” value in the series on Escherichia coli NDM-7 is “A (A = MIC values ≤ 1)”. Moreover, the “MIC values EC NDM-1” value against Escherichia coli NDM-1 was “A (A = MIC values ≤ 1)”. The “Dose required to reduce minim 1 log fold CFU in a thigh and or a sepsis animal model” value in the series with bacteria is “C (C = 5-10 mg/kg)”. In addition, in [3], the “MIC values AB NDM-1” value was “B (B MIC values 2 ÷ 8)”.
